Source: BindingDB's records for doi:10.1021/acs.jmedchem.8b01908 (Chinese Academy of Sciences, 2019)
Positions of bridges follow the written chain, without caps; N, C: chain ends. Residues, ends and D or L forms follow the SMILES beside them.

Assay: Inhibition of the intrinsic peri-cellular uPA in mouse CT26 cells assessed as reduction in cell invasion measured every hour by transwell assay

| IC50 | SMILES |
| --- | --- |
| 5.02 µM | CC[C@H](C)[C@@H]1NC(=O)[C@H](Cc2ccc(O)cc2)NC(=O)[C@H](CCCNC(=N)N)NC(=O)[C@H](CO)NC(=O)[C@H](Cc2ccc(O)cc2)NC(=O)[C@H](C)NC(=O)[C@@H]2CCCN2C(=O)[C@@H](NC(C)=O)CSSC[C@@H](C(N)=O)NC(=O)CNC1=O (Ac-CPAYSRYIGC-NH2; disulfide 1-10) |
| 3.28 µM | CC[C@H](C)[C@@H]1NC(=O)[C@H](Cc2ccc(O)cc2)NC(=O)[C@H](CCCNC(=N)N)NC(=O)[C@H](CO)NC(=O)[C@H](Cc2ccc(O)cc2)NC(=O)[C@H](C)NC(=O)[C@@H]2CCCN2C(=O)[C@@H](N)CSSC[C@@H](C(=O)O)NC(=O)CNC1=O (H-CPAYSRYIGC-OH; disulfide 1-10) |

| SMILES | IC50 |
| --- | --- |
| CC(=O)N[C@H]1CSSC[C@@H](C(N)=O)NC(=O)[C@H](CC(=O)O)NC(=O)[C@H](CC(C)C)NC(=O)[C@H](Cc2ccc(O)cc2)NC(=O)[C@H](CCCNC(=N)N)NC(=O)[C@H](CO)NC(=O)[C@H](Cc2ccc(O)cc2)NC(=O)[C@H](C)NC(=O)[C@@H]2CCCN2C1=O (Ac-CPAYSRYLDC-NH2; disulfide 1-10) | 39.4 µM |
